According to the supplement of paper PMC10307832:

Key:
Assay in all cases: relative viability (nuclei count vs DMSO), 5 days (fraction); higher = more cells survive
Apatinib + Palbociclib = compound: N#CC1(c2ccc(NC(=O)c3cccnc3NCc3ccncc3)cc2)CCCC1 [Apatinib] + CC(=O)c1c(C)c2cnc(Nc3ccc(N4CCNCC4)cn3)nc2n(C2CCCC2)c1=O [Palbociclib] (partner 0.5 µM)
Outline: (§1)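 Five library-drug doses in √10 steps were combined with a fixed anchor-drug dose, or a single drug was given alone, by pin tool to lung cancer cell lines in 1536-well plates the day after seeding. Nuclei were stained and counted after 5 days. Relative viability is the nuclei count in treated wells over that in vehicle wells, taken as the median of duplicate plates.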

Apatinib + Tozasertib = compound: N#CC1(c2ccc(NC(=O)c3cccnc3NCc3ccncc3)cc2)CCCC1 [Apatinib] + Cc1cc(Nc2cc(N3CCN(C)CC3)nc(Sc3ccc(NC(=O)C4CC4)cc3)n2)n[nH]1 [Tozasertib] (partner 0.1 µM)
Outline: as §1

Apatinib + Phenformin = compound: N#CC1(c2ccc(NC(=O)c3cccnc3NCc3ccncc3)cc2)CCCC1 [Apatinib] + N=C(N)NC(=N)NCCc1ccccc1 [Phenformin] (partner 250 µM)
Outline: as §1

Apatinib + Alpelisib = compound: N#CC1(c2ccc(NC(=O)c3cccnc3NCc3ccncc3)cc2)CCCC1 [Apatinib] + Cc1nc(NC(=O)N2CCC[C@H]2C(N)=O)sc1-c1ccnc(C(C)(C)C(F)(F)F)c1 [Alpelisib] (partner 2 µM)
Outline: as §1

Row | Cell Line | relative viability (Apatinib + Palbociclib; first compound 0.08 µM) | relative viability (Apatinib + Palbociclib; first compound 0.253 µM) | relative viability (Apatinib + Palbociclib; first compound 0.8 µM) | relative viability (Apatinib + Palbociclib; first compound 2.53 µM) | relative viability (Apatinib + Palbociclib; first compound 8 µM) | relative viability (Apatinib + Tozasertib; first compound 0.08 µM) | relative viability (Apatinib + Tozasertib; first compound 0.253 µM) | relative viability (Apatinib + Tozasertib; first compound 0.8 µM) | relative viability (Apatinib + Tozasertib; first compound 2.53 µM) | relative viability (Apatinib + Tozasertib; first compound 8 µM) | relative viability (Apatinib + Phenformin; first compound 0.08 µM) | relative viability (Apatinib + Phenformin; first compound 0.253 µM) | relative viability (Apatinib + Phenformin; first compound 0.8 µM) | relative viability (Apatinib + Phenformin; first compound 2.53 µM) | relative viability (Apatinib + Phenformin; first compound 8 µM) | relative viability (Apatinib + Alpelisib; first compound 0.08 µM) | relative viability (Apatinib + Alpelisib; first compound 0.253 µM) | relative viability (Apatinib + Alpelisib; first compound 0.8 µM) | relative viability (Apatinib + Alpelisib; first compound 2.53 µM) | relative viability (Apatinib + Alpelisib; first compound 8 µM)
1 | HCC-366 | 0.484 | 0.378 | 0.373 | 0.334 | 0.306 | 0.11 | 0.0735 | 0.0616 | 0.0574 | 0.0476 | 0.635 | 0.61 | 0.578 | 0.525 | 0.456 | 0.417 | 0.46 | 0.4 | 0.308 | 0.265
2 | HCC-827 | 0.444 | 0.444 | 0.402 | 0.391 | 0.357 | 0.381 | 0.388 | 0.43 | 0.413 | 0.311 | 0.4 | 0.406 | 0.212 | 0.382 | 0.351 | 0.999 | 0.991 | 0.831 | 0.825 | 0.469
3 | HOP-62 | 0.441 | 0.366 | 0.377 | 0.361 | 0.219 | 0.442 | 0.403 | 0.329 | 0.257 | 0.192 | 0.646 | 0.646 | 0.638 | 0.625 | 0.577 | 0.727 |  | 1.15 | 0.801 | 0.713
4 | IA-LM |  |  |  |  |  |  |  |  |  |  |  |  |  |  |  | 0.793 | 0.673 | 0.665 | 0.558 | 0.337
5 | LC-2-ad | 0.476 | 0.501 | 0.516 | 0.436 | 0.356 | 0.516 | 0.522 | 0.466 | 0.462 | 0.446 | 0.539 | 0.579 | 0.517 | 0.539 | 0.582 | 0.9 | 0.798 | 0.802 | 0.824 | 0.652
6 | LCLC-97TM1 | 0.238 | 0.276 | 0.193 | 0.204 | 0.173 | 0.226 | 0.255 | 0.173 | 0.2 | 0.165 | 0.411 | 0.409 | 0.424 | 0.404 | 0.37 | 0.281 | 0.21 | 0.256 | 0.206 | 0.154
7 | LCLC-103H | 0.513 | 0.436 | 0.426 | 0.465 | 0.483 | 0.443 | 0.491 | 0.429 | 0.42 | 0.357 | 0.363 | 0.31 | 0.316 | 0.297 | 0.308 | 0.971 | 0.87 | 1.02 | 0.918 | 0.911
8 | LK-2 | 0.762 | 0.481 | 0.758 | 0.484 | 0.356 | 0.159 | 0.195 | 0.183 | 0.152 | 0.175 | 0.485 | 0.51 | 0.467 | 0.287 | 0.258 | 1.33 | 1.29 | 1.04 | 1.01 | 0.919
9 | LOU-NH91 | 0.549 | 0.508 | 0.526 | 0.58 | 0.531 | 0.741 | 0.729 | 0.618 | 0.601 | 0.546 | 0.651 | 0.73 | 0.631 | 0.659 | 0.665 | 0.762 | 0.699 | 0.586 | 0.616 | 0.568
